EC50 data for two compounds are collected here from BindingDB's records for PubMed 33486199 (Queen Mary University of London, 2021).

The target in the test is T1, fMet-Leu-Phe receptor (Homo sapiens, UniProt P21462).
T1 sequence (P21462 whole entry): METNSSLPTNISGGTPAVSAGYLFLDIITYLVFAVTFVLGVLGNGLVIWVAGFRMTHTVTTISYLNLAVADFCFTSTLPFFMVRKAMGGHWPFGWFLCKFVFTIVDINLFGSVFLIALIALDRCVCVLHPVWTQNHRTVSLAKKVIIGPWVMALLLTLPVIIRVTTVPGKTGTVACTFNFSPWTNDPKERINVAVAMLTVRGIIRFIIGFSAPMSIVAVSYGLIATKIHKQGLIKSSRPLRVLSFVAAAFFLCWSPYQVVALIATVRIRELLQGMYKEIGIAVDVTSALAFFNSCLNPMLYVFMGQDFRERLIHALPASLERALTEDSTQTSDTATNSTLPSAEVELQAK
As to the kind of experiment: Agonist activity at human FPR1 expressed in CHO cells assessed as cAMP level incubated for 1.5 hr by HTRF assay. For orientation: Cyclic AMP is a second messenger, typically raised through Gs and lowered through Gi signalling.

With `O=C(Nc1ccc(Cl)cc1F)N[C@@H]1CCN(c2ccc(-c3cnn(C(F)F)c3)c(F)c2F)C1=O` [US10676431, Example 79], the EC50 was over 10 µM.

On to `CP(C)(=O)c1ccccc1-c1ccc(N2CC(CO)[C@@H](NC(=O)Nc3ccc(Cl)cc3F)C2=O)c(F)c1F` (some centres not stated) [US10676431, Example 125], for which the EC50 is over 10 µM.

For orientation: EC50 means the midpoint of the concentration-response curve.
